Patent EP0048613B1, “4-0-Substituted -2-deoxystreptamine aminoglycoside derivatives, their preparation and formulations containing them” (ELI LILLY AND COMPANY, priority 1980, dated 1982)
Values after ≈ are worked out from the molar mass of the structure shown.

Columns and labels:
[1] = system: Bordetella bronchiseptica 16; test: MIC, standard agar dilution test; type: cell-based
Description: (§1) The antibacterial activity of the deprotected compounds of this invention is illustrated by the following in vitro and in vivo test data obtained with representative compounds. In Table I, the minimum inhibitory concentration (MIC) for representative compounds against a wide range of gram-positive and gram-negative bacteria is presented. The MIC values were obtained by the standard agar dilution test.

[2] = system: Citrobacter freundii CF17; test: MIC, standard agar dilution test; type: cell-based
Description: as §1

[3] = system: Enterobacter aerogenes C32; test: MIC, standard agar dilution test; type: cell-based
Description: as §1

[4] = system: Enterobacter aerogenes EB17; test: MIC, standard agar dilution test; type: cell-based
Description: as §1

[5] = system: Enterobacter aerogenes X68; test: MIC, standard agar dilution test; type: cell-based
Description: as §1

[6] = system: Enterobacter cloacae 265A; test: MIC, standard agar dilution test; type: cell-based
Description: as §1

Enterobacter cloacae EB5 = test: MIC, standard agar dilution test; type: cell-based
Description: as §1

Escherichia coli EC14 = test: MIC, standard agar dilution test; type: cell-based
Description: as §1

Escherichia coli N10 = test: MIC, standard agar dilution test; type: cell-based
Description: as §1

Escherichia coli TEM = test: MIC, standard agar dilution test; type: cell-based; details: for Minimum inhibitory concentration: Escherichia coli TEM, agar dilution
Description: as §1

Hemophilus influenzae 76 = test: MIC, standard agar dilution test; type: cell-based
Description: as §1

[7] = system: Hemophilus influenzae C.L.; test: MIC, standard agar dilution test; type: cell-based
Description: as §1

[8] = system: Klebsiella pneumoniae KAE; test: MIC, standard agar dilution test; type: cell-based
Description: as §1

[9] = system: Klebsiella pneumoniae X26; test: MIC, standard agar dilution test; type: cell-based
Description: as §1

Proteus inconstans PR33 = test: MIC, standard agar dilution test; type: cell-based
Description: as §1

Proteus morganii PR15 = test: MIC, standard agar dilution test; type: cell-based
Description: as §1

Proteus rettgeri C24 = test: MIC, standard agar dilution test; type: cell-based
Description: as §1

Proteus rettgeri PR7 = test: MIC, standard agar dilution test; type: cell-based
Description: as §1

[10] = system: Pseudomonas aeruginosa Ps18; test: MIC, standard agar dilution test; type: cell-based
Description: as §1

[11] = system: Pseudomonas aeruginosa X239; test: MIC, standard agar dilution test; type: cell-based
Description: as §1

[12] = system: Pseudomonas aeruginosa X528; test: MIC, standard agar dilution test; type: cell-based
Description: as §1

[13] = system: Salmonella heidelberg X514; test: MIC, standard agar dilution test; type: cell-based
Description: as §1

[14] = system: Salmonella typhimurium 1335; test: MIC, standard agar dilution test; type: cell-based
Description: as §1

Serratia marcescens SE3 = test: MIC, standard agar dilution test; type: cell-based
Description: as §1

Serratia marcescens X99 = test: MIC, standard agar dilution test; type: cell-based
Description: as §1

Shigella sonnei N9 = test: MIC, standard agar dilution test; type: cell-based
Description: as §1

[15] = system: Staphylococcus aureus S13E; test: MIC, standard agar dilution test; type: cell-based; details: for Minimum inhibitory concentration: Staphylococcus aureus S13E, agar dilution
Description: as §1

[16] = system: Staphylococcus aureus V41; test: MIC, standard agar dilution test; type: cell-based
Description: as §1

[17] = system: Staphylococcus aureus X1.1; test: MIC, standard agar dilution test; type: cell-based
Description: as §1

[18] = system: Staphylococcus aureus X400; test: MIC, standard agar dilution test; type: cell-based
Description: as §1

[19] = system: Staphylococcus epidermidis EPI1; test: MIC, standard agar dilution test; type: cell-based; details: for Minimum inhibitory concentration: Staphylococcus epidermidis EPI1, agar dilution
Description: as §1

[20] = system: Staphylococcus epidermidis EPI2; test: MIC, standard agar dilution test; type: cell-based
Description: as §1

[21] = system: Streptococcus group D 9960; test: MIC, standard agar dilution test; type: cell-based
Description: as §1

[22] = system: Streptococcus group D X66; test: MIC, standard agar dilution test; type: cell-based
Description: as §1

[23] = system: Streptococcus pneumoniae Park I; test: MIC, standard agar dilution test; type: cell-based; details: for Minimum inhibitory concentration: Streptococcus pneumoniae Park I, agar dilution
Description: as §1

[24] = system: Streptococcus pyogenes C203; test: MIC, standard agar dilution test; type: cell-based
Description: as §1

[25] = system: Staphylococcus aureus 3055; test: Subcutaneous therapy of experimental bacterial infection in mice; type: in vivo; details: subcutaneous doses at 1 and 5 hours post infection
Method: Table II illustrates the effective dose (ED50, effective dose to protect 50 percent of the test animals) for representative compounds of this invention against an experimental bacterial infection in mice.
The EDso values were determined as described by W. E. Wick et al., Journal of Bacteriology, 81 [No. 2], 233-235 (1961).

[26] = read-out: Minimum inhibitory concentration
[27] = Klebsiella aerogenes, read-out: Minimum inhibitory concentration
[28] = Haemophilus influenzae, read-out: Minimum inhibitory concentration
[29] = Providencia rettgeri, read-out: Minimum inhibitory concentration
[30] = Salmonella enterica, read-out: Minimum inhibitory concentration

CCNC1CC2OC(OC3OC(CO)C(N)C(O)C3O)C(NC)C(O)C2OC1OC1C(N)CC(N)C(O)C1O (stereo not drawn) [Test compound 4, 2′-N-ethylapramycin]
MIC [1, 26]: 32 µg/mL (≈ 56.4 µM) | MIC [2, 26]: 16 µg/mL (≈ 28.2 µM) | MIC [3, 27]: 8 µg/mL (≈ 14.1 µM) | MIC [4, 27]: 8 µg/mL (≈ 14.1 µM) | MIC [5, 27]: 8 µg/mL (≈ 14.1 µM) | MIC [6, 26]: 32 µg/mL (≈ 56.4 µM) | MIC (Enterobacter cloacae EB5; [26]): 16 µg/mL (≈ 28.2 µM) | MIC (Escherichia coli EC14; [26]): 8 µg/mL (≈ 14.1 µM) | MIC (Escherichia coli N10; [26]): 8 µg/mL (≈ 14.1 µM) | MIC (Escherichia coli TEM; Escherichia coli, read-out: Minimum inhibitory concentration): 2 µg/mL (≈ 3.52 µM) | MIC (Hemophilus influenzae 76; [28]): 16 µg/mL (≈ 28.2 µM) | MIC [7, 28]: 16 µg/mL (≈ 28.2 µM) | MIC [8, 26]: 8 µg/mL (≈ 14.1 µM) | MIC [9, 26]: 4 µg/mL (≈ 7.05 µM) | MIC (Proteus inconstans PR33; Providencia alcalifaciens, read-out: Minimum inhibitory concentration): 8 µg/mL (≈ 14.1 µM) | MIC (Proteus morganii PR15; Morganella morganii, read-out: Minimum inhibitory concentration): 32 µg/mL (≈ 56.4 µM) | MIC (Proteus rettgeri C24; [29]): 8 µg/mL (≈ 14.1 µM) | MIC (Proteus rettgeri PR7; [29]): 8 µg/mL (≈ 14.1 µM) | MIC [10, 26]: 32 µg/mL (≈ 56.4 µM) | MIC [11, 26]: 64 µg/mL (≈ 113 µM) | MIC [12, 26]: 64 µg/mL (≈ 113 µM) | MIC [13, 30]: 16 µg/mL (≈ 28.2 µM) | MIC [14, 30]: 8 µg/mL (≈ 14.1 µM) | MIC (Serratia marcescens SE3; [26]): 16 µg/mL (≈ 28.2 µM) | MIC (Serratia marcescens X99; [26]): 8 µg/mL (≈ 14.1 µM) | MIC (Shigella sonnei N9; [26]): 8 µg/mL (≈ 14.1 µM) | MIC ([15]; Staphylococcus aureus, S13E, read-out: Minimum inhibitory concentration): 8 µg/mL (≈ 14.1 µM) | MIC [16, 26]: 8 µg/mL (≈ 14.1 µM) | MIC [17, 26]: 4 µg/mL (≈ 7.05 µM) | MIC [18, 26]: 16 µg/mL (≈ 28.2 µM) | MIC ([19]; Staphylococcus epidermidis, EPI1, read-out: Minimum inhibitory concentration): 8 µg/mL (≈ 14.1 µM) | MIC [20, 26]: 2 µg/mL (≈ 3.52 µM) | MIC ([21]; D9960, read-out: Minimum inhibitory concentration): > 128 µg/mL | MIC ([22]; DX66, read-out: Minimum inhibitory concentration): 128 µg/mL (≈ 225 µM) | MIC ([23]; Streptococcus pneumoniae, read-out: Minimum inhibitory concentration): 16 µg/mL (≈ 28.2 µM) | MIC [24, 26]: 16 µg/mL (≈ 28.2 µM) | ED50 ([25]; Staphylococcus aureus, 3055, sc, challenged with 68.1 LD50's, read-out: Effective dose (ED50)): < 4.35 mg/kg

2′-N-(RS-γ-Amino-α-hydroxybutyryl)apramycin [Test compound 2]
Minimum inhibitory concentration [1]: 128 µg/mL | Minimum inhibitory concentration [2]: 32 µg/mL | Minimum inhibitory concentration [3]: 16 µg/mL | Minimum inhibitory concentration [4]: 32 µg/mL | Minimum inhibitory concentration [5]: 16 µg/mL | Minimum inhibitory concentration [6]: 64 µg/mL | Minimum inhibitory concentration (Enterobacter cloacae EB5): 32 µg/mL | Minimum inhibitory concentration (Escherichia coli EC14): 32 µg/mL | Minimum inhibitory concentration (Escherichia coli N10): 16 µg/mL | Minimum inhibitory concentration (Escherichia coli TEM): 8 µg/mL | Minimum inhibitory concentration (Hemophilus influenzae 76): 32 µg/mL | Minimum inhibitory concentration [7]: 32 µg/mL | Minimum inhibitory concentration [8]: 32 µg/mL | Minimum inhibitory concentration [9]: 8 µg/mL | Minimum inhibitory concentration (Proteus inconstans PR33): 32 µg/mL | Minimum inhibitory concentration (Proteus morganii PR15): 128 µg/mL | Minimum inhibitory concentration (Proteus rettgeri C24): 16 µg/mL | Minimum inhibitory concentration (Proteus rettgeri PR7): 16 µg/mL | Minimum inhibitory concentration [10]: 128 µg/mL | Minimum inhibitory concentration [11]: 128 µg/mL | Minimum inhibitory concentration [12]: 128 µg/mL | Minimum inhibitory concentration [13]: 32 µg/mL | Minimum inhibitory concentration [14]: 32 µg/mL | Minimum inhibitory concentration (Serratia marcescens SE3): 32 µg/mL | Minimum inhibitory concentration (Serratia marcescens X99): 16 µg/mL | Minimum inhibitory concentration (Shigella sonnei N9): 32 µg/mL | Minimum inhibitory concentration [15]: 16 µg/mL | Minimum inhibitory concentration [16]: 32 µg/mL | Minimum inhibitory concentration [17]: 16 µg/mL | Minimum inhibitory concentration [18]: 64 µg/mL | Minimum inhibitory concentration [19]: 16 µg/mL | Minimum inhibitory concentration [20]: 8 µg/mL | Minimum inhibitory concentration [21]: >128 µg/mL | Minimum inhibitory concentration [22]: >128 µg/mL | Minimum inhibitory concentration [23]: 32 µg/mL | Minimum inhibitory concentration [24]: 32 µg/mL | Effective dose (ED50) ([25]; challenged with 331 LD50's): 21.8^2 mg/kg×2

2′-N-(S-γ-Amino-α-hydroxybutyryl)nebramine [Test compound 5]
Minimum inhibitory concentration [1]: >128 µg/mL | Minimum inhibitory concentration [2]: 64 µg/mL | Minimum inhibitory concentration [3]: 64 µg/mL | Minimum inhibitory concentration [4]: 64 µg/mL | Minimum inhibitory concentration [5]: 64 µg/mL | Minimum inhibitory concentration [6]: >128 µg/mL | Minimum inhibitory concentration (Enterobacter cloacae EB5): 128 µg/mL | Minimum inhibitory concentration (Escherichia coli EC14): >128 µg/mL | Minimum inhibitory concentration (Escherichia coli N10): 128 µg/mL | Minimum inhibitory concentration (Escherichia coli TEM): 32 µg/mL | Minimum inhibitory concentration (Hemophilus influenzae 76): 64 µg/mL | Minimum inhibitory concentration [7]: 64 µg/mL | Minimum inhibitory concentration [8]: 64 µg/mL | Minimum inhibitory concentration [9]: 64 µg/mL | Minimum inhibitory concentration (Proteus inconstans PR33): 64 µg/mL | Minimum inhibitory concentration (Proteus morganii PR15): 64 µg/mL | Minimum inhibitory concentration (Proteus rettgeri C24): 64 µg/mL | Minimum inhibitory concentration (Proteus rettgeri PR7): 32 µg/mL | Minimum inhibitory concentration [10]: 128 µg/mL | Minimum inhibitory concentration [11]: 128 µg/mL | Minimum inhibitory concentration [12]: >128 µg/mL | Minimum inhibitory concentration [13]: 128 µg/mL | Minimum inhibitory concentration [14]: 128 µg/mL | Minimum inhibitory concentration (Serratia marcescens SE3): >128 µg/mL | Minimum inhibitory concentration (Serratia marcescens X99): 128 µg/mL | Minimum inhibitory concentration (Shigella sonnei N9): 64 µg/mL | Minimum inhibitory concentration [15]: 32 µg/mL | Minimum inhibitory concentration [16]: 64 µg/mL | Minimum inhibitory concentration [17]: 32 µg/mL | Minimum inhibitory concentration [18]: 64 µg/mL | Minimum inhibitory concentration [19]: 64 µg/mL | Minimum inhibitory concentration [20]: 32 µg/mL | Minimum inhibitory concentration [21]: >128 µg/mL | Minimum inhibitory concentration [22]: >128 µg/mL | Minimum inhibitory concentration [23]: 128 µg/mL | Minimum inhibitory concentration [24]: 128 µg/mL | Effective dose (ED50) ([25]; challenged with 1794 LD50's): >70^3 mg/kg×2
